Results as given in patent publication US4123456A, “Novel 11-hydroxy-9-keto-5,6-cis-13,14-cis-prostadienoic acid derivatives” (American Cyanamid Company, priority 1977, dated 1978).

Experiments:
[1] = test system: ulcerogenic properties of indomethacin; assay: protection against the ulcerogenic properties of indomethacin; type: in vivo, Rats; conditions: 2.5 or lower considered active
Description: The compounds of this invention provide protection against the ulcerogenic properties of indomethacin. This assay was carried out in the following manner.
Rats were starved for 48 hours (water was given ad libitum). Indomethacin (20 mg./kg. of body weight) was administered by the subutaneous route and one-half the dose of the test compound was administered by gavage at the same time. After 3 hours, the second half of the test compound was administered also by Gavage. Five hours after the administration of indomethacin the animals were decapitated and the stomachs removed. The stomachs were washed with distilled water, blotted on gauze, cut along the larger curvature, and the contents rinsed with distilled water. The stomachs were spread out, pinned on a cork and visualized under magnifying glass for ulcers. The criteria for scoring of ulcers was as previously reported. [Abdel-Galil et al. Brit. J. Pharmac. Chemotherapy 33:1-14 (1968)].
1 Petechial hemmorhage or pin point ulcer
3 Many ulcers, a few large
4 Many ulcers, mainly large
Control animals treated with indomethacin but not test compound consistently give scores of about 3.0-3.5. Control animals treated with neither indomethacin nor test compound give scores of about 0.5-0.8. Compounds producing a score of 2.5 or lower are considered to be active.

[2] = test system: gastric acid secretion; assay: gastric acid secretion inhibition, "Shay rat" procedure; type: in vivo, rats (male, CFE strain); conditions: intraduodenal dose 100 mg./kg. of body weight; 20% or more considered active
Description: The novel compounds of the present invention are also effective inhibitors of gastric acid secretion and of ulcer development in experimental animals, and thus are potentially valuable as agents for the control of gastric acid secretion and of gastric erosion and an anti-ulcer agents. Gastric acid secretion inhibitory action is usually measured by the "Shay rat" procedure^(1,2) with some modifications as follows.
The rats (male, CFE strain) were starved for 48 hours (water was given ad libitum) to permit evacuation of stomach contents. On the morning of the experiment, under ether anesthesia, the abdominal region was shaved and a midline incision (1-1 1/2") was made with a scapel. […]
The abdominal cavity was exposed by cutting with scissors and the esophagus close to the stomach was clamped off with a hemostat, the stomach was removed by cutting above the hemostat (the esophagus was cut) and between the two sutures. […] The supernatant was collected, volume measured and recorded, 2 drops of a phenolphthalein indicator (1% in 95% ethanol) were added and the solution was titrated with 0.02N NaOH (or with 0.04N NaOH when large volumes of stomach contents were encountered) to pH 8.4 (because of usual coloring of the stomach contents, phenolphthalein was only used to permit visual indication that the end point was near) and the amount of acid present was calculated. […]

[3] = total oral dose 25 mg./kg., control score 3.2

**Q.** `CCCCCC(O)/C=C/[C@H]1CCC(=O)[C@@H]1CCCCCC(CC)C(=O)O` (relative stereo) was tested. Which “Score, Treated” value ([1]; total oral dose 50 mg./kg., control score 3.0) did it give?
**A.** 2.2

**Q.** Which “Score, Treated” value ([1]; total oral dose 12.5 mg./kg., control score 3.0) does the source give for `CCCCCC(O)/C=C/[C@H]1CCC(=O)[C@]1(C)CCCCCCC(=O)O` (relative stereo) [8β-methyl-9-oxo-15-hydroxy-13-trans-prostenoic acid] here?
**A.** 2.0

**Q.** With `CCCCC[C@@H](O)/C=C/[C@H]1CCC(=O)[C@@H]1CCCCSCC(=O)O` (relative stereo) [9-oxo-3-thia-15-epi-hydroxy-13-trans-prostenoic acid] as the molecule, how does the “Score, Treated” value [1, 3] read?
**A.** 2.3

**Q.** For `CCCCCC(O)/C=C/[C@H]1CCC(=O)[C@@H]1CCCCC(C)(C)CC(=O)O` (relative stereo) [9-oxo-15-hydroxy-3,3-dimethyl-13-trans-prostenoic acid], which “Percent Inhibition of gastric acid secretion” value [2] is on record?
**A.** 51%

**Q.** With `CCCCCC(O)/C=C/[C@H]1CCC(=O)[C@@H]1CCCCSCC(=O)O` (relative stereo) [9-oxo-15-hydroxy-3-thia-13-trans-prostenoic acid] as the molecule, how does the “Score, Treated” value [1, 3] read?
**A.** 1.8

**Q.** Which “Score, Treated” value ([1]; total oral dose 100 mg./kg., control score 3.0) does the source give for `CCCCCC(O)/C=C\[C@H]1CCC(=O)[C@@H]1CCCCCCC(=O)O` (relative stereo) [9-oxo-15-hydroxy-13-cis-prostenoic acid, 15-hydroxy-9-oxo-13-cis-prostenoic acid] here?
**A.** 1.3

**Q.** `CCCCC(CC)C(O)/C=C/[C@H]1CCC(=O)[C@@H]1CCCCCCC(=O)O` (relative stereo) [9-oxo-15-hydroxy-16-ethyl-13-trans-prostenoic acid] was tested. Which “Score, Treated” value [1, 3] did it give?
**A.** 1.7
